The supplement of paper PMC10307832

Legend:
Test in all cases: relative viability (nuclei count vs DMSO), 5 days (fraction); higher = more cells survive
[1] = compound: COc1cc2nc(N3CCCN(C)CC3)nc(NC3CCN(Cc4ccccc4)CC3)c2cc1OC + COc1cc2c(Oc3ccc(NC(=O)C4(C(=O)Nc5ccc(F)cc5)CC4)cc3F)ccnc2cc1OCCCN1CCOCC1 [Foretinib] (partner 0.25 µM)
In short: (§1)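 Each reported value is a median over duplicate plates. It expresses relative viability: treated-well nuclei count divided by vehicle-well nuclei count. Lung cancer cell lines in 1536-well plates were dosed by pin tool a day after seeding, alone with one drug or with a fixed anchor-drug dose plus five library-drug doses (not always all listed) in √10 steps, and nuclei were counted after 5 days.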

[2] = compound: COc1cc2nc(N3CCCN(C)CC3)nc(NC3CCN(Cc4ccccc4)CC3)c2cc1OC + CS(=O)(=O)N1CCN(Cc2cc3nc(-c4cccc5[nH]ncc45)nc(N4CCOCC4)c3s2)CC1 [Pictilisib] (partner 1 µM)
In short: as §1

AZD6482 + Tozasertib = compound: Cc1cc([C@@H](C)Nc2ccccc2C(=O)O)c2nc(N3CCOCC3)cc(=O)n2c1 [AZD6482] + Cc1cc(Nc2cc(N3CCN(C)CC3)nc(Sc3ccc(NC(=O)C4CC4)cc3)n2)n[nH]1 [Tozasertib] (partner 0.1 µM)
In short: as §1

AZD6482 + Olaparib = compound: Cc1cc([C@@H](C)Nc2ccccc2C(=O)O)c2nc(N3CCOCC3)cc(=O)n2c1 [AZD6482] + O=C(c1cc(Cc2n[nH]c(=O)c3ccccc23)ccc1F)N1CCN(C(=O)C2CC2)CC1 [Olaparib] (partner 8 µM)
In short: as §1

| Cell Line | relative viability ([1]; first compound 0.2 µM) | relative viability ([1]; first compound 0.6325 µM) | relative viability ([1]; first compound 2 µM) | relative viability ([1]; first compound 6.325 µM) | relative viability ([2]; first compound 0.2 µM) | relative viability ([2]; first compound 0.6325 µM) | relative viability ([2]; first compound 2 µM) | relative viability ([2]; first compound 6.325 µM) | relative viability (AZD6482 + Tozasertib; first compound 0.08 µM) | relative viability (AZD6482 + Tozasertib; first compound 0.253 µM) | relative viability (AZD6482 + Tozasertib; first compound 0.8 µM) | relative viability (AZD6482 + Tozasertib; first compound 2.53 µM) | relative viability (AZD6482 + Tozasertib; first compound 8 µM) | relative viability (AZD6482 + Olaparib; first compound 0.08 µM) | relative viability (AZD6482 + Olaparib; first compound 0.253 µM) | relative viability (AZD6482 + Olaparib; first compound 0.8 µM) | relative viability (AZD6482 + Olaparib; first compound 2.53 µM) | relative viability (AZD6482 + Olaparib; first compound 8 µM) |
| --- | --- | --- | --- | --- | --- | --- | --- | --- | --- | --- | --- | --- | --- | --- | --- | --- | --- | --- |
| BEN | 0.908 | 0.786 | 0.91 | 0.972 | 0.571 | 0.643 | 0.69 | 0.572 | 0.463 | 0.526 | 0.472 | 0.493 | 0.495 | 0.915 | 0.934 | 0.946 | 0.875 | 0.816 |
| LCLC-103H | 0.826 | 0.857 | 0.825 | 0.772 | 0.635 | 0.666 | 0.656 | 0.585 | 0.486 | 0.456 | 0.472 | 0.412 | 0.303 | 0.677 | 0.745 | 0.648 | 0.543 | 0.569 |
| EKVX | 0.754 | 0.814 | 0.986 | 0.794 | 0.466 | 0.46 | 0.357 | 0.4 | 0.337 | 0.296 | 0.344 | 0.362 | 0.202 | 0.671 | 0.773 | 0.855 | 0.469 | 0.595 |
| LXF-289 | 0.936 | 0.993 | 0.984 | 1 | 0.8 | 0.778 | 0.804 | 0.762 | 0.178 | 0.135 | 0.171 | 0.207 | 0.122 | 1.02 | 1.05 | 1.11 | 0.986 | 0.918 |
| ABC-1 | 1.04 | 1.35 | 1.32 | 0.996 | 0.618 | 0.926 | 0.699 | 0.611 | 0.168 | 0.158 | 0.155 | 0.201 | 0.216 | 0.602 | 0.464 | 0.881 | 0.801 | 0.52 |
| NCI-H650 | 1.06 | 0.948 | 1.12 | 0.965 | 0.959 | 0.707 | 1.03 | 0.562 | 0.722 |  | 0.751 | 0.588 | 0.443 | 0.315 | 0.364 | 0.337 | 0.31 | 0.268 |
| NCI-H1650 | 1.11 | 1.06 | 1.31 | 0.755 | 0.543 | 0.699 | 0.544 | 0.548 | 0.36 | 0.378 | 0.303 | 0.336 | 0.393 | 0.652 | 0.761 | 0.643 | 0.736 | 0.813 |
| NCI-H2085 | 0.917 | 0.926 | 0.965 | 0.944 | 0.446 | 0.522 | 0.471 | 0.404 | 0.656 | 0.539 | 0.407 | 0.393 | 0.351 | 0.632 | 0.358 | 0.45 | 0.36 | 0.303 |
| NCI-H1793 | 0.591 | 0.882 | 0.848 | 0.701 | 0.317 | 0.342 | 0.282 | 0.372 | 0.256 | 0.189 | 0.219 | 0.226 | 0.15 | 0.559 | 0.413 | 0.502 | 0.306 | 0.406 |
| LC-2-ad | 0.813 | 0.938 | 0.956 | 0.974 | 0.481 | 0.467 | 0.534 | 0.473 | 0.392 | 0.428 | 0.452 | 0.5 | 0.379 | 0.727 | 0.735 | 0.795 | 0.64 | 0.803 |
| COR-L 105 | 1.06 | 1.27 | 1.13 | 0.921 | 0.349 | 0.435 | 0.34 | 0.327 | 0.362 | 0.348 | 0.352 | 0.336 | 0.344 | 0.607 | 0.851 | 0.726 | 0.549 | 0.687 |
| NCI-H1355 | 0.973 | 0.968 | 1.05 | 0.919 | 0.434 | 0.442 | 0.472 | 0.476 | 0.462 | 0.419 | 0.43 | 0.435 | 0.441 | 0.597 | 0.63 | 0.708 | 0.522 | 0.564 |
| H3255 | 0.857 | 0.812 | 0.981 | 1.05 | 0.487 | 0.397 | 0.529 | 0.422 | 0.607 | 0.595 | 0.42 | 0.442 | 0.594 | 0.559 | 0.567 | 0.596 | 0.492 | 0.55 |
| NCI-H1993 | 0.801 | 0.735 | 0.756 | 0.912 | 0.709 | 0.858 | 0.894 | 0.811 | 0.446 | 0.609 | 0.55 | 0.527 | 0.562 | 0.881 | 0.997 | 0.95 | 0.563 | 0.665 |
| NCI-H1734 | 0.934 | 0.846 | 0.849 | 0.91 | 0.459 | 0.418 | 0.392 | 0.384 | 0.287 | 0.263 | 0.269 | 0.217 | 0.24 | 0.509 | 0.538 | 0.531 | 0.365 | 0.509 |
| HOP-62 | 1.06 | 1.09 | 1.1 | 1.15 | 0.586 | 0.688 | 0.555 | 0.496 | 0.374 | 0.382 | 0.311 | 0.363 | 0.332 | 0.444 | 0.539 | 0.453 | 0.459 | 0.552 |
| LOU-NH91 | 0.933 | 0.996 | 0.866 | 0.993 | 0.546 | 0.585 | 0.505 | 0.566 | 0.551 | 0.66 | 0.605 | 0.546 | 0.496 | 0.851 | 0.917 | 0.898 | 0.595 | 0.755 |
